Measurements as given in ChEMBL document CHEMBL1131749, “Landomycin A inhibits DNA synthesis and G1/S cell cycle progression” (1999).

How the values were obtained:
Type in all cases: functional
Mus musculus [1] = organism: Mus musculus; experiment: Inhibition of uptake of [3H]thymidine into DNA by murine smooth cells at a concentration of 200 nM after 24 hours
Mus musculus [2] = organism: Mus musculus; experiment: Inhibition of uptake of [3H]thymidine into DNA by murine smooth cells at a concentration of 200 nM after 20 hours
Mus musculus [3] = organism: Mus musculus; experiment: Inhibition of uptake of [3H]thymidine into DNA by murine smooth cells at a concentration of 80 nM after 16 hours
Mus musculus [4] = organism: Mus musculus; experiment: Inhibition of uptake of [3H]thymidine into DNA by murine smooth cells at a concentration of 20 nM after 24 hours
Mus musculus [5] = organism: Mus musculus; experiment: Inhibition of uptake of [3H]thymidine into DNA by murine smooth cells at a concentration of 80 nM after 24 hours
Mus musculus [6] = organism: Mus musculus; experiment: Inhibition of uptake of [3H]thymidine into DNA by murine smooth cells at a concentration of 20 nM after 16 hours
Mus musculus [7] = organism: Mus musculus; experiment: Inhibition of uptake of [3H]thymidine into DNA by murine smooth cells at a concentration of 200 nM after 16 hours
Mus musculus [8] = organism: Mus musculus; experiment: Inhibition of uptake of [3H]-thymidine into DNA by murine smooth cells at a concentration of 80 nM after 20 hours
Mus musculus [9] = organism: Mus musculus; experiment: Inhibition of uptake of [3H]thymidine into DNA by murine smooth cells at a concentration of 20 nM after 20 hours

Q: For `Cc1cc(O)c2c(c1)C[C@@H](O)C1=C2C(=O)c2c(O)ccc(O[C@H]3C[C@@H](O)[C@H](O[C@H]4C[C@@H](O[C@H]5CC[C@H](O[C@H]6C[C@@H](O)[C@H](O[C@H]7C[C@@H](O[C@H]8CC[C@H](O)[C@H](C)O8)[C@H](O)[C@@H](C)O7)[C@@H](C)O6)[C@H](C)O5)[C@H](O)[C@@H](C)O4)[C@@H](C)O3)c2C1=O` [LANDOMYCIN A], which Inhibition (Mus musculus [1]) is on record?
A: Its Inhibition is 20000 c.p.m./Abs.

Q: And the Inhibition (Mus musculus [2])?
A: Its Inhibition is 5000 c.p.m./Abs.

Q: And the Inhibition (Mus musculus [3])?
A: The Inhibition was 5000 c.p.m./Abs.

Q: What about the Inhibition (Mus musculus [4]) of the same compound?
A: The Inhibition was 65000 c.p.m./Abs.

Q: What about the Inhibition (Mus musculus [5]) of the same compound?
A: Its Inhibition is 60000 c.p.m./Abs.

Q: What about the Inhibition (Mus musculus [6]) of the same compound?
A: Its Inhibition is 10000 c.p.m./Abs.

Q: What about the Inhibition (Mus musculus [7]) of the same compound?
A: Its Inhibition is 0 c.p.m./Abs.

Q: What about the Inhibition (Mus musculus [8]) of the same compound?
A: The Inhibition was 30000 c.p.m./Abs.

Q: What about the Inhibition (Mus musculus [9]) of the same compound?
A: Its Inhibition is 45000 c.p.m./Abs.
